{
  "source": "patent US8822447B2",
  "about": "“Indazole compounds useful as ketohexokinase inhibitors” (Janssen Pharmaceutica NV, priority 2010, dated 2014)",
  "note": "Counter-ions that a name gives are not always drawn.",
  "data": [
    {"molecular_target": "KHK (Homo sapiens (Human), UniProt P50053)", "sequence (P50053 whole entry)": "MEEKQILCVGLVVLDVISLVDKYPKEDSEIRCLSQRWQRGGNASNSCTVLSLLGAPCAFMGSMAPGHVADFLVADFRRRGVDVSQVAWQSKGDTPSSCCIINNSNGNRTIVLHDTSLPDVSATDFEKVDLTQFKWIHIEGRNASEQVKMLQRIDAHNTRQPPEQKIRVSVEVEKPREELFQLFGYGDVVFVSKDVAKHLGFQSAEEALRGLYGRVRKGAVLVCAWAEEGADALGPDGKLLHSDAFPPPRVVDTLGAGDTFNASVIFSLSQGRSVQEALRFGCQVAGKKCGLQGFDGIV", "test": "In Vitro KHK Enzyme Assay (HTMS);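 also: primary screen measuring inhibition of KHK-catalysed conversion of D-fructose into fructose 1-phosphate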", "type": "biochemical", "conditions": "200 μM fructose, 100 μM ATP, 2 nM KHK, 60 min at 25° C.; Fructose-1-P detected by high throughput mass spectrometry", "units": {"IC50": "nM"}, "description": "An enzymatic assay was developed to measure KHK-mediated conversion of D-fructose to Fructose-1-P (F-1-P) using High Throughput Mass Spectroscopy (HTMS) as a means of product detection. This assay served as a primary screen to evaluate the ability to inhibit KHK enzyme activity and it has been adapted to high throughput mass spectrometry (HTMS, BioTrove RapidFire™) format for higher throughput.\nThe compounds to be tested were dosed in 12-points concentration from 511 μM to 0.5 μM. […] The assay was carried out in 384-well plate format.", "values": [
      {"molecule": "CSc1nn(-c2cc(F)cc(F)c2)c2cc(N3CCN(C4CCNCC4)CC3)ccc12", "note": "[Compound 126, 1-(3,5-Difluoro-phenyl)-3-methylsulfanyl-6-(4-piperidin-4-yl-piperazin-1-yl)-1H-indazole]", "IC50": 4220},
      {"molecule": "CSc1nn(-c2ccccc2)c2cc(N3CCN(C(=O)C4CCCCN4)CC3)ccc12", "note": "(centres unmarked) [Compound 35, (4-(3-(Methylthio)-1-phenyl-1H-indazol-6-yl)piperazin-1-yl)(piperidin-2-yl)methanone]", "IC50": 430},
      {"molecule": "CSc1nn(-c2ccccc2)c2cc(N3CCC(N4CCNCC4)CC3)ccc12", "note": "[Compound 20, 3-(Methylthio)-1-phenyl-6-(4-(piperazin-1-yl)piperidin-1-yl)-1H-indazole hydrochloride]", "IC50": 670},
      {"molecule": "CSc1nn(-c2ccccc2)c2cc(NC(=O)NC3CCNCC3)ccc12", "note": "[Compound 7, 1-(3-(Methylthio)-1-phenyl-1H-indazol-6-yl)-3-(piperidin-4-yl)urea hydrochloride]", "IC50": 700},
      {"molecule": "CSc1nn(-c2ccccc2)c2cc(N3CCCNCC3)ccc12", "note": "[Compound 11, 6-(1,4-Diazepan-1-yl)-3-(methylthio)-1-phenyl-1H-indazole hydrochloride]", "IC50": 540},
      {"molecule": "CCc1nn(-c2ccccc2)c2cc(-c3ccc(OC4CCNCC4)cc3)ccc12", "note": "[Compound 37, 3-Ethyl-1-phenyl-6-(4-(piperidin-4-yloxy)phenyl)-1H-indazole hydrochloride]", "IC50": 5870},
      {"molecule": "CSc1nn(-c2ccccc2)c2cc(C(O)c3ccncc3)ccc12", "note": "(centres unmarked) [Compound 137, (3-Methylsulfanyl-1-phenyl-1H-indazol-6-yl)-pyridin-4-yl-methanol]", "IC50": "> 2000"},
      {"molecule": "CSc1nn(-c2ccc([N+](=O)[O-])cc2)c2cc(C3=CCN(C(=O)CN)CC3)ccc12", "note": "[Compound 144, 2-Amino-1-{4-[3-methylsulfanyl-1-(4-nitro-phenyl)-1H-indazol-6-yl]-3,6-dihydro-2H-pyridin-1-yl}-ethanone]", "IC50": "> 10000"},
      {"molecule": "CSc1nn(-c2ccccc2)c2cc(NC(=O)C3CCNC3)ccc12", "note": "(centres unmarked) [Compound 5, N-(3-(Methylthio)-1-phenyl-1H-indazol-6-yl)pyrrolidine-3-carboxamide hydrochloride]", "IC50": 590},
      {"molecule": "CCc1nn(-c2ccccc2)c2cc(N3CCN(C4CCNCC4)C3=O)ccc12", "note": "[Compound 49, 1-(3-Ethyl-1-phenyl-1H-indazol-6-yl)-3-(piperidin-4-yl)imidazolidin-2-one hydrochloride]", "IC50": 1800},
      {"molecule": "CSc1nn(-c2ccccc2)c2cc(NC(=O)c3cccnc3)ccc12", "note": "[Compound 14, N-(3-(Methylthio)-1-phenyl-1H-indazol-6-yl)nicotinamide]", "IC50": 230},
      {"molecule": "CCOc1cc(-c2ccc(N3CCN(C)CC3)cc2)nc2c1c(CC)nn2-c1ccccc1", "note": "[Compound 103, 4-Ethoxy-3-ethyl-6-[4-(4-methyl-piperazin-1-yl)-phenyl]-1-phenyl-1H-pyrazolo[3,4-b]pyridine]", "IC50": 660},
      {"molecule": "Cc1nn(-c2ccccc2)c2cc(-c3ccc(N4CCNCC4)cc3)ccc12", "note": "[Compound 58, 3-Methyl-1-phenyl-6-(4-piperazin-1-yl-phenyl)-1H-indazole hydrochloride]", "IC50": 7500},
      {"molecule": "CSc1nn(-c2ccccc2)c2cc(NC(=O)C3(c4ccccc4)CCNCC3)ccc12", "note": "[Compound 172, 4-Phenyl-piperidine-4-carboxylic acid (3-methylsulfanyl-1-phenyl-1H-indazol-6-yl)-amide]", "IC50": 2150},
      {"molecule": "CCc1nn(-c2ccccc2)c2nc(N3CCN(c4cccnc4)CC3)ncc12", "note": "[Compound 83, 3-Ethyl-1-phenyl-6-(4-(pyridin-3-yl)piperazin-1-yl)-1H-pyrazolo[3,4-d]pyrimidine trifluoroacetic acid]", "IC50": "> 30000"},
      {"molecule": "CSc1nn(-c2ccccc2)c2cc(N3CC4CC3CN4)ccc12", "note": "(centres unmarked) [Compound 10, 2-(3-(methylthio)-1-phenyl-1H-indazol-6-yl)-2,5-diaza-bicyclo[2.2.1]heptane hydrochloride]", "IC50": 710},
      {"molecule": "CSc1nn(-c2ccccc2)c2cc(N3CCN(C(=O)c4ccncc4)CC3)ccc12", "note": "[Compound 17, (4-(3-(Methylthio)-1-phenyl-1H-indazol-6-yl)piperazin-1-yl)(pyridin-4-yl)methanone]", "IC50": 2030},
      {"molecule": "CCc1nn(-c2ccccc2)c2cc(N3CCN(C4CCNCC4)CC3)ccc12", "note": "[Compound 46, 3-Ethyl-1-phenyl-6-(4-(piperidin-4-yl)piperazin-1-yl)-1H-indazole hydrochloride]", "IC50": 560},
      {"molecule": "CCc1nn(-c2ccccc2)c2cc(N3CCN(C)CC3)ccc12", "note": "[Compound 54, 3-Ethyl-6-(4-methylpiperazin-1-yl)-1-phenyl-1H-indazole]", "IC50": 4520},
      {"molecule": "CSc1nn(-c2ccccc2)c2cc(NC(=O)c3ccncc3)ccc12", "note": "[Compound 8, N-(3-Methylsulfanyl-1-phenyl-1H-indazol-6-yl)-isonicotinamide]", "IC50": 1010},
      {"molecule": "Cc1nn(-c2ccccc2)c2nc(-c3ccc(NC4CCNCC4)cc3)cc(O)c12", "note": "[Compound 101, 3-Methyl-1-phenyl-6-[4-(piperidin-4-ylamino)-phenyl]-1H-pyrazolo[3,4-b]pyridin-4-ol]", "IC50": 890},
      {"molecule": "CCc1nn(-c2ccccc2)c2nc(-c3ccc(N4CC(C)NC(C)C4)cc3)cc(OC)c12", "note": "(centres unmarked) [Compound 98, 6-[4-(3,5-Dimethyl-piperazin-1-yl)-phenyl]-3-ethyl-4-methoxy-1-phenyl-1H-pyrazolo[3,4-b]pyridine]", "IC50": 300},
      {"molecule": "CCc1nn(-c2ccccc2)c2cc(N3CCN(C4CNC4)CC3)ccc12", "note": "[Compound 44, 6-(4-(azetidin-3-yl)piperazin-1-yl)-3-ethyl-1-phenyl-1H-indazole hydrochloride]", "IC50": 2400},
      {"molecule": "CSc1nn(-c2ccc([N+](=O)[O-])cc2)c2cc(CN3CCNCC3)ccc12", "note": "[Compound 130, 3-Methylsulfanyl-1-(4-nitro-phenyl)-6-piperazin-1-ylmethyl-1H-indazole]", "IC50": 44900},
      {"molecule": "CSc1nn(-c2ccccc2)c2cc(N3CCN(C4CNC4)CC3)ccc12", "note": "[Compound 21, 6-(4-(Azetidin-3-yl)piperazin-1-yl)-3-(methylthio)-1-phenyl-1H-indazole hydrochloride]", "IC50": 2820},
      {"molecule": "COc1cc(-c2ccc(N3CCNCC3)cc2)nc2c1c(C)nn2-c1ccccc1", "note": "[Compound 99, 4-Methoxy-3-methyl-1-phenyl-6-(4-piperazin-1-yl-phenyl)-1H-pyrazolo[3,4-b]pyridine]", "IC50": 600},
      {"molecule": "COc1nn(-c2ccccc2)c2cc(NC(=O)c3ccc4[nH]cnc4c3)ccc12", "note": "[Compound 80, N-(3-methoxy-1-phenyl-1H-indazol-6-yl)-1H-benzo[d]imidazole-5-carboxamide]", "IC50": 4500},
      {"molecule": "CSc1nn(-c2ccccc2)c2cc(NC3CCNCC3)ccc12", "note": "[Compound 109, (3-Methylsulfanyl-1-phenyl-1H-indazol-6-yl)-piperidin-4-yl-amine]", "IC50": 770},
      {"molecule": "CSc1nn(-c2ccccc2)c2cc(C(=O)CC3CCCN3)ccc12", "note": "(centres unmarked) [Compound 163, 1-(3-Methylsulfanyl-1-phenyl-1H-indazol-6-yl)-2-pyrrolidin-2-yl-ethanone]", "IC50": 8280},
      {"molecule": "CCc1nn(-c2ccccc2)c2cc(N3CCC4(CCNC4)C3)ccc12", "note": "(centres unmarked) [Compound 51, 6-(2,7-Diaza-spiro[4.4]non-2-yl)-3-ethyl-1-phenyl-1H-indazole hydrochloride]", "IC50": 1470},
      {"molecule": "CCN1CCN(c2ccc3c(C)nn(-c4ccccc4)c3c2)CC1", "note": "[Compound 69, 6-(4-Ethylpiperazin-1-yl)-3-methyl-1-phenyl-1H-indazole 2,2,2-trifluoroacetic acid salt]", "IC50": 14200},
      {"molecule": "CCc1nn(-c2ccccc2)c2cc(N3CCN(c4ccncc4)CC3)ccc12", "note": "[Compound 47, 3-Ethyl-1-phenyl-6-(4-(pyridin-4-yl)piperazin-1-yl)-1H-indazole hydrochloride]", "IC50": 3510},
      {"molecule": "CSc1nn(-c2ccccc2)c2cc(C(=O)CC3CCCNC3)ccc12", "note": "(centres unmarked) [Compound 161, 1-(3-Methylsulfanyl-1-phenyl-1H-indazol-6-yl)-2-piperidin-3-yl-ethanone]", "IC50": 6620},
      {"molecule": "CCc1nn(-c2ccccc2)c2cc(N3CC4CNCC4C3)ccc12", "note": "(centres unmarked) [Compound 50, 3-Ethyl-6-(hexahydropyrrolo[3,4-c]pyrrol-2(1H)-yl)-1-phenyl-1H-indazolehydrochloride]", "IC50": 5360},
      {"molecule": "CSc1nn(-c2ccccc2)c2cc(NC(=O)CC3CCCCN3)ccc12", "note": "(centres unmarked) [Compound 3, N-(3-(Methylthio)-1-phenyl-1H-indazol-6-yl)-2-(piperidin-2-yl)acetamide hydrochloride]", "IC50": 860},
      {"molecule": "CSc1nn(-c2ccccc2)c2cc(NC(=O)CCN3CCNCC3)ccc12", "note": "[Compound 132, N-(3-Methylsulfanyl-1-phenyl-1H-indazol-6-yl)-3-piperazin-1-yl-propionamide]", "IC50": 380},
      {"molecule": "CSc1nn(-c2ccc(F)cc2)c2cc(N3CCN(C4CCNCC4)CC3)ccc12", "note": "[Compound 135, 1-(4-Fluoro-phenyl)-3-methylsulfanyl-6-(4-piperidin-4-yl-piperazin-1-yl)-1H-indazole]", "IC50": 1650},
      {"molecule": "Cc1nn(-c2ccccc2)c2cc(N3CCN(C(C)C)CC3)ccc12", "note": "[Compound 70, 6-(4-Isopropylpiperazin-1-yl)-3-methyl-1-phenyl-1H-indazole formic acid salt]", "IC50": 14700}
    ]}
  ]
}
